{"source": "patent US11142515B2", "about": "“Pyrazolyl-ureas as kinase inhibitors” (RESPIVERT LIMITED, priority 2014, dated 2021)", "key": {"[1]": {"tested_on": "TNFα release in d-U937 cells", "assay": "LPS-induced TNFα release in d-U937 cells; on all read-outs here: relative to 10 µg/mL BIRB-796", "type": "cell-based", "settings": "Homo sapiens, dU937; read-out: LPS Induced Release TNFα REC50 (dU937)", "procedure,_shortened": "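Sandwich ELISA of supernatants measured TNFα and IL-8 after 4 h LPS challenge (0.1 μg/mL, E. coli O111:B4). Before the challenge, PMA-differentiated U937 macrophage-like cells received compound for 2 h. REC50 derived from concentration-response curves, with inhibition relative to vehicle control.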"}, "p38MAPKγ (MAPK12)": {"target": "T1, p38MAPKγ (MAPK12) (Homo sapiens, UniProt P53778)", "T1 construct": "purchased Life Technologies", "T1 sequence (P53778 1-367)": "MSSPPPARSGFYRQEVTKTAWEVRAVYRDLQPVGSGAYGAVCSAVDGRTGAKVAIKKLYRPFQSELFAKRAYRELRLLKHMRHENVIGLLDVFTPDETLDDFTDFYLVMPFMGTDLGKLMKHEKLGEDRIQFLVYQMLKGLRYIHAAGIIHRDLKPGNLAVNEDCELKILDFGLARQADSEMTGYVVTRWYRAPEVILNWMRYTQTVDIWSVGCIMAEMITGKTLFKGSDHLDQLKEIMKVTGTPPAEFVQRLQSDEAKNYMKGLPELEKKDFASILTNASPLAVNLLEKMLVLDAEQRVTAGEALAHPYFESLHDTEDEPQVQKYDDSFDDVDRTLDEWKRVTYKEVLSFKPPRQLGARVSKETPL", "assay": "p38 MAPKγ enzyme inhibition (Z-LYTE FRET)", "type": "biochemical", "settings": "Table 2A; read-out: IC50 Values for Enzyme Inhibition p38 MAPKγ", "procedure,_shortened": "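Enzyme (added at 800 ng/mL) was preincubated 2 h at RT with compound (solutions of 40 to 0.0012 μg/mL), then FRET peptide (8 μM) and ATP (400 μM), both as added, were reacted 1 h at RT. Protease development followed for 1 h; phosphorylation was read as the coumarin/fluorescein emission ratio.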"}, "[2]": {"tested_on": "neutrophil accumulation in BALF", "assay": "LPS-induced neutrophil accumulation in mice", "type": "in vivo, Balb/c mice", "settings": "mice; for Neutrophil numbers in BALF / Neutrophil numbers in BALF, % inhibition: 0.2 mg/mL, LPS", "description": "Non-fasted Balb/c mice were […] by the intra tracheal route with either vehicle, or the test substance at the indicated times (within the range 2-8 h) before stimulation of the inflammatory response by application of an LPS challenge. At T=0, mice were placed into an exposure chamber and exposed to LPS (7.0 mL, 0.5 mg/mL solution in PBS for 30 min). After a further 8 h the animals were anesthetized, their tracheas cannulated and BALF extracted by infusing and then withdrawing from their lungs 1.0 mL of PBS via the tracheal catheter. Total and differential white cell counts in the BALF samples were measured using a Neubaur haemocytometer. Cytospin smears of the BALF samples were prepared by centrifugation at 200 rpm for 5 min at RT and stained using a DiffQuik stain system (Dade Behring). Cells were counted using oil immersion microscopy. Data for neutrophil numbers in BAL are shown as mean±S.E.M. (standard error of the mean). The percentage inhibition of neutrophil accumulation was calculated for each treatment relative to vehicle treatment."}, "d-U937 cells": {"tested_on": "d-U937 cells", "assay": "Cell viability: MTT assay in differentiated U937 cells", "type": "cell-based, human", "settings": "10 μg/mL", "procedure,_shortened": "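Viability loss, calculated against 0.5% DMSO vehicle (gains reported negative), was measured by MTT reduction (1 h) and A550 after DMSO solubilisation. Compound exposure of d-U937 cells was 10 μg/mL final, for 24 h in 10% FCS or 4 h in 5% FCS RPMI1640.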"}, "Syk": {"target": "T2, Syk (Homo sapiens, UniProt P43405)", "T2 construct": "purchased Life Technologies", "assay": "Syk enzyme inhibition (Z-LYTE FRET)", "type": "biochemical", "settings": "for IC50: Table 2A", "procedure,_shortened": "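Z-LYTE readout: coumarin-to-fluorescein ratio after 1 h protease cleavage of unphosphorylated peptide. Kinase reactions ran 1 h at RT with ATP stock at 800 μM (c-Src) or 60 μM (Hck, Syk), following 2 h compound preincubation over 0.0012–40 μg/mL; enzyme stocks 1000/1400/2000 ng/mL.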"}}}
{"smiles": "Cc1ccc(-n2nc(C(C)(C)C)cc2NC(=O)Nc2ccc(OCc3ccnc(Nc4cnccn4)c3)c3ccccc23)cc1", "note": "[Example 1, 1-(3-(tert-Butyl)-1-(p-tolyl)-1H-pyrazol-5-yl)-3-(4-((2-(pyrazin-2-ylamino)pyridin-4-yl)methoxy)naphthalen-1-yl)urea]", "values": [{"measurement": "EC50", "setting": "[1]", "result": 1.6, "unit": "nM"}, {"measurement": "IC50", "setting": "p38MAPKγ (MAPK12)", "result": 67, "unit": "nM"}, {"measurement": "Neutrophil numbers in BALF", "setting": "[2]; pre-dose time 2 hr", "result": 492000, "unit": "mL⁻¹"}, {"measurement": "Neutrophil numbers in BALF, % inhibition", "setting": "[2]; pre-dose time 2 hr", "result": 67.8, "unit": "%"}, {"measurement": "Neutrophil numbers in BALF", "setting": "[2]; pre-dose time 8 hr", "result": 759000, "unit": "mL⁻¹"}, {"measurement": "Neutrophil numbers in BALF, % inhibition", "setting": "[2]; pre-dose time 8 hr", "result": 50.3, "unit": "%"}, {"measurement": "LPS-induced neutrophil accumulation (in words)", "setting": "[2]", "result": "inhibition"}, {"measurement": "duration of action (time course experiment)", "setting": "[2]", "result": "long duration of action"}, {"measurement": "MTT Assay Cell viability at time point indicated in d-U937 Cells, 4 h", "setting": "d-U937 cells", "result": "− (−ve and +ve indicate the value is below and above, respectively, the no significant effect threshold defined as 30% inhibition at 10 μg/mL at the time point indicated)"}, {"measurement": "MTT Assay Cell viability at time point indicated in d-U937 Cells, 24 h", "setting": "d-U937 cells", "result": "− (−ve and +ve indicate the value is below and above, respectively, the no significant effect threshold defined as 30% inhibition at 10 μg/mL at the time point indicated)"}, {"measurement": "inhibitory activity against Syk (in words)", "setting": "Syk", "result": "very much weaker than the Reference Compound"}, {"measurement": "IC50", "setting": "Syk", "result": "> 16700", "unit": "nM"}]}
{"smiles": "Cc1cc(-n2nc(C(C)(C)C)cc2NC(=O)Nc2ccc(OCc3ccnc(Nc4cnccn4)c3)c3ccccc23)cs1", "note": "(single isomer, unassigned) [Example 31]", "values": [{"measurement": "EC50", "setting": "[1]", "result": 1, "unit": "nM"}, {"measurement": "IC50", "setting": "p38MAPKγ (MAPK12)", "result": 112, "unit": "nM"}, {"measurement": "MTT Assay Cell viability at time point indicated in d-U937 Cells, 4 h", "setting": "d-U937 cells", "result": "− (−ve and +ve indicate the value is below and above, respectively, the no significant effect threshold defined as 30% inhibition at 10 μg/mL at the time point indicated)"}, {"measurement": "MTT Assay Cell viability at time point indicated in d-U937 Cells, 24 h", "setting": "d-U937 cells", "result": "− (−ve and +ve indicate the value is below and above, respectively, the no significant effect threshold defined as 30% inhibition at 10 μg/mL at the time point indicated)"}, {"measurement": "IC50", "setting": "Syk", "result": "> 16500", "unit": "nM"}]}
{"smiles": "Cc1ccc(-n2nc(C(C)(C)C)cc2NC(=O)Nc2ccc(OCc3ccnc(Nc4cnc(CC(=O)N(C)C)cn4)c3)c3ccccc23)cc1", "note": "[Example 29]", "values": [{"measurement": "EC50", "setting": "[1]", "result": 4.2, "unit": "nM"}, {"measurement": "IC50", "setting": "p38MAPKγ (MAPK12)", "result": 80, "unit": "nM"}, {"measurement": "MTT Assay Cell viability at time point indicated in d-U937 Cells, 4 h", "setting": "d-U937 cells", "result": "− (−ve and +ve indicate the value is below and above, respectively, the no significant effect threshold defined as 30% inhibition at 10 μg/mL at the time point indicated)"}, {"measurement": "MTT Assay Cell viability at time point indicated in d-U937 Cells, 24 h", "setting": "d-U937 cells", "result": "+ (−ve and +ve indicate the value is below and above, respectively, the no significant effect threshold defined as 30% inhibition at 10 μg/mL at the time point indicated)"}, {"measurement": "IC50", "setting": "Syk", "result": "> 14600", "unit": "nM"}]}
{"smiles": "Cc1ccc(-n2nc(C(C)(C)C)cc2NC(=O)Nc2ccc(OCc3ccnc(Nc4cnc(C)cn4)c3)c3ccccc23)cc1", "note": "[Example 19]", "values": [{"measurement": "EC50", "setting": "[1]", "result": 13.2, "unit": "nM"}, {"measurement": "IC50", "setting": "p38MAPKγ (MAPK12)", "result": 229, "unit": "nM"}, {"measurement": "MTT Assay Cell viability at time point indicated in d-U937 Cells, 4 h", "setting": "d-U937 cells", "result": "− (−ve and +ve indicate the value is below and above, respectively, the no significant effect threshold defined as 30% inhibition at 10 μg/mL at the time point indicated)"}, {"measurement": "MTT Assay Cell viability at time point indicated in d-U937 Cells, 24 h", "setting": "d-U937 cells", "result": "− (−ve and +ve indicate the value is below and above, respectively, the no significant effect threshold defined as 30% inhibition at 10 μg/mL at the time point indicated)"}, {"measurement": "IC50", "setting": "Syk", "result": "> 16300", "unit": "nM"}]}
{"smiles": "Cc1ccc(-n2nc(C(C)(C)C)cc2NC(=O)Nc2ccc(OCc3ccnc(Nc4cncc(C)n4)c3)c3ccccc23)cc1", "note": "[Example 20]", "values": [{"measurement": "EC50", "setting": "[1]", "result": 1.3, "unit": "nM"}, {"measurement": "IC50", "setting": "p38MAPKγ (MAPK12)", "result": 62, "unit": "nM"}, {"measurement": "MTT Assay Cell viability at time point indicated in d-U937 Cells, 4 h", "setting": "d-U937 cells", "result": "− (−ve and +ve indicate the value is below and above, respectively, the no significant effect threshold defined as 30% inhibition at 10 μg/mL at the time point indicated)"}, {"measurement": "MTT Assay Cell viability at time point indicated in d-U937 Cells, 24 h", "setting": "d-U937 cells", "result": "− (−ve and +ve indicate the value is below and above, respectively, the no significant effect threshold defined as 30% inhibition at 10 μg/mL at the time point indicated)"}, {"measurement": "IC50", "setting": "Syk", "result": "> 16300", "unit": "nM"}]}
